# In patent US4849345A, “L-phenylalanine dehydrogenase and use thereof” (priority 1985, dated 1989):
# Like-named read-outs stand apart in the source and are kept apart here.
# Columns and labels:
# Format in all cases: biochemical
# [1] = target: T1, L-phenylalanine dehydrogenase produced by Bacillus sp. SCRC-R79a (Lysinibacillus sphaericus, UniProt P23307); assay: Substrate and coenzyme specificity, oxidative deamination (Bacillus enzyme); parameters: inoculated with Bacillus sp; endogenous in cells; host or cells: Bacillus sp; enzyme purified in house
# T1 sequence (P23307 1-381): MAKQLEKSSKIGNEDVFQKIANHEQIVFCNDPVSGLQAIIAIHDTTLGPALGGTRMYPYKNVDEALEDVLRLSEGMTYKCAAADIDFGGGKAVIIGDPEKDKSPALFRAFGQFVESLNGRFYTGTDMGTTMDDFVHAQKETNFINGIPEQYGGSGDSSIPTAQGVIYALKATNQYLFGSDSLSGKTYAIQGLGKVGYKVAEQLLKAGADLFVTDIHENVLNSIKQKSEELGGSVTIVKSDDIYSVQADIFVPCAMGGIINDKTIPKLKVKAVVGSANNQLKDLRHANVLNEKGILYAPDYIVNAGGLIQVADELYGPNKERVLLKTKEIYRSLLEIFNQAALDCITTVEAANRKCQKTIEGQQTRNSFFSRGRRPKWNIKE
# Description: The substrate concentration is 10 mM except for the L-tyrosine concentration which is 1.4 mM.
# [2] = target: T2, L-phenylalanine dehydrogenase produced by Sporosarcina ureae SCRC-R04 (Sporosarcina ureae, UniProt P97014); assay: Substrate and coenzyme specificity, oxidative deamination (Sporosarcina enzyme); details: for activity at 10000 µM: substrate concentration 10 mM, L-phenylalanine = 100
# T2 sequence (P97014 1-379): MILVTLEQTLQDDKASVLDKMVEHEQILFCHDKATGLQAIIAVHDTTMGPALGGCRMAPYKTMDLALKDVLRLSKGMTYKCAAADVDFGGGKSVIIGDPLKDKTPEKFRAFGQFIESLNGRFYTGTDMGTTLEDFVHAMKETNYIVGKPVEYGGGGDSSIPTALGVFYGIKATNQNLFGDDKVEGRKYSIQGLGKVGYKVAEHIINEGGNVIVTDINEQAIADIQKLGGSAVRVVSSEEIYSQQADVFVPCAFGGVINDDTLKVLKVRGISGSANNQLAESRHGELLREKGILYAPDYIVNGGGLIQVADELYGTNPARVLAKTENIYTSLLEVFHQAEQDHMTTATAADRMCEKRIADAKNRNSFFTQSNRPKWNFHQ
# Description: The substrate concentration is 10 mM, except for the L-tyrosine concentration which is 1.4 mM.
# [3] = target: T2, L-phenylalanine dehydrogenase produced by Sporosarcina ureae SCRC-R04; assay: biochemical; details: for activity at 1000 µM: read-out: Relative activity
# [4] = target: T1, L-phenylalanine dehydrogenase produced by Bacillus sp. SCRC-R79a; assay: Effect of metal ions and inhibitors on enzyme activity (Bacillus enzyme); parameters: inoculated with Bacillus sp; endogenous in cells; host or cells: Bacillus sp; enzyme purified in house; details: for activity at 1000 µM: read-out: Relative activity
# Description: Unless otherwise described, the concentration of metal cations and inhibitors is 1 mM.
# [5] = read-out: Relative activity (%)
# [6] = oxidative deamination, read-out: Relative activity (%)
# [7] = oxidative deamination, substrate concentration 10 mM, L-phenylalanine = 100, read-out: Relative activity (%)
# [8] = 1 mM, not added = 100, listed as Fe^3+, 1000 µM
smiles,measurement,setting,value
N[C@@H](CS)C(=O)O [L-cysteine],action of the enzyme on the amino acid as substrate (in words),[1]; oxidative deamination,cannot serve as a substrate
same,action of the enzyme on the amino acid as substrate (in words),[2]; oxidative deamination,cannot serve as a substrate
"CCSCC[C@H](N)C(=O)O [L--Ethionine, L-ethionine]",activity at 10000 µM,[1]; [5],3.1%
same,activity at 10000 µM,[2]; [6],7%
"CSCC[C@H](N)C(=O)O [L--Methionine, L-methionine]",action of the enzyme on the amino acid as substrate (in words),[1]; oxidative deamination,acting very weakly
same,activity at 10000 µM,[1]; [5],3%
same,action of the enzyme on the amino acid as substrate (in words),[2]; oxidative deamination,act very weakly
same,activity at 10000 µM,[2]; [6],4.1%
NC(=O)c1ccc[n+]([C@@H]2O[C@H](COP(=O)([O-])OP(=O)(O)OC[C@H]3O[C@@H](n4cnc5c(N)ncnc54)[C@H](OP(=O)(O)O)[C@@H]3O)[C@@H](O)[C@H]2O)c1 [NADP^+],activity relative to NAD^+ as coenzyme,[1]; coenzyme,~2.9%
same,activity relative to NAD^+ as coenzyme,[2]; coenzyme,about 3.9%
N[C@H](Cc1ccccc1)C(=O)O [D-phenylalanine],action of the enzyme on the amino acid as substrate (in words),[1]; oxidative deamination,cannot serve as a substrate
same,action of the enzyme on the amino acid as substrate (in words),[2]; oxidative deamination,cannot serve as a substrate
"N[C@@H](Cc1c[nH]c2ccccc12)C(=O)O [L--Tryptophan, L-tryptophan]",action of the enzyme on the amino acid as substrate (in words),[1]; oxidative deamination,acting very weakly
same,activity at 10000 µM,[1]; [7],1.6%
same,action of the enzyme on the amino acid as substrate (in words),[2]; oxidative deamination,act very weakly
same,activity at 10000 µM,[2]; [6],6.8%
[Ca+2] [Ca^2+],Relative activity,"[3]; 1 mM, not added = 100",100%
same,Relative activity,"[4]; 1 mM, not added = 100",92%
[Al+3] [Al^3+],Relative activity,"[3]; 1 mM, not added = 100",153%
same,Relative activity,"[4]; 1 mM, not added = 100",99%
[N-]=[N+]=[N-].[Na+] [NaN3],Relative activity,"[3]; 1 mM, not added = 100",100%
same,Relative activity,"[4]; 1 mM, not added = 100",102%
N[C@@H](Cc1c[nH]cn1)C(=O)O [L-histidine],action of the enzyme on the amino acid as substrate (in words),[1]; oxidative deamination,cannot serve as a substrate
same,action of the enzyme on the amino acid as substrate (in words),[2]; oxidative deamination,cannot serve as a substrate
[Cd+2] [Cd^2+],Relative activity,"[3]; 1 mM, not added = 100",70%
same,Relative activity,"[4]; 1 mM, not added = 100",102%
NO [Hydroxylamine],Relative activity,"[3]; 10 mM, not added = 100",173%
same,Relative activity,"[4]; 10 mM, not added = 100",90%
O=C(O)c1cc[c]([Hg][Cl])cc1 [PCMB],effect on enzyme activity (in words),[3],inhibited
same,Relative activity,"[3]; 0.2 mM, not added = 100",0%
same,effect on enzyme activity (in words),[4],inhibited
same,Relative activity,"[4]; 0.2 mM, not added = 100",0%
[Ba+2] [Ba^2+],Relative activity,"[3]; 1 mM, not added = 100",106%
same,Relative activity,"[4]; 1 mM, not added = 100",93%
[Mn+2] [Mn^2+],Relative activity,"[3]; 1 mM, not added = 100",129%
same,Relative activity,"[4]; 1 mM, not added = 100",95%
NC(C(=O)O)c1ccccc1 (racemic) [DL-phenylglycine],action of the enzyme on the amino acid as substrate (in words),[2]; oxidative deamination,cannot serve as a substrate
NCCCC[C@H](N)C(=O)O [L-lysine],action of the enzyme on the amino acid as substrate (in words),[1]; oxidative deamination,cannot serve as a substrate
same,action of the enzyme on the amino acid as substrate (in words),[2]; oxidative deamination,cannot serve as a substrate
O=C(O)CI [Iodoacetic acid],activity at 1000 µM,[3],91%
same,activity at 1000 µM,[4],127%
O=C(O)[C@@H]1CCCN1 [L-proline],action of the enzyme on the amino acid as substrate (in words),[1]; oxidative deamination,cannot serve as a substrate
same,action of the enzyme on the amino acid as substrate (in words),[2]; oxidative deamination,cannot serve as a substrate
Oc1cccc2cccnc12 [8-Oxyquinoline],Relative activity,[3]; 1000 µM,101
same,Relative activity,[4]; 1000 µM,96
NC(=O)C[C@H](N)C(=O)O [L-asparagine],action of the enzyme on the amino acid as substrate (in words),[1]; oxidative deamination,cannot serve as a substrate
same,action of the enzyme on the amino acid as substrate (in words),[2]; oxidative deamination,cannot serve as a substrate
[Fe+2] [Fe^2+],Relative activity,"[3]; 1 mM, not added = 100, 1000 µM",127%
same,Relative activity,[3]; [8],161%
same,Relative activity,"[4]; 1 mM, not added = 100, 1000 µM",116%
same,Relative activity,[4]; [8],117%
"CC(C)C[C@H](N)C(=O)O [L--Leucine, L-leucine]",action of the enzyme on the amino acid as substrate (in words),[1]; oxidative deamination,cannot serve as a substrate
same,activity at 10000 µM,[2]; [6],2.3%
N[C@@H](CCC(=O)O)C(=O)O [L-glutamic acid],action of the enzyme on the amino acid as substrate (in words),[1]; oxidative deamination,cannot serve as a substrate
same,action of the enzyme on the amino acid as substrate (in words),[2]; oxidative deamination,cannot serve as a substrate
[Pb+2] [Pb^2+],Relative activity,"[3]; 1 mM, not added = 100",81%
same,Relative activity,"[4]; 1 mM, not added = 100",53%
"CCCC[C@H](N)C(=O)O [L--Norleucine, L-norleucine]",activity at 10000 µM,[1]; [7],3.9%
same,activity at 10000 µM,[2]; [6],15%
"CC[C@H](C)[C@H](N)C(=O)O [L--Isoleucine, L-isoleucine]",action of the enzyme on the amino acid as substrate (in words),[1]; oxidative deamination,cannot serve as a substrate
same,activity at 10000 µM,[2]; [6],0.54%
[Hg+2] [Hg^2+],effect on enzyme activity (in words),[3],inhibited
same,Relative activity,"[3]; 0.01 mM, not added = 100",0%
same,effect on enzyme activity (in words),[4],inhibited
same,Relative activity,"[4]; 0.01 mM, not added = 100",38%
"CCC[C@H](N)C(=O)O [L--Norvaline, L-norvaline]",activity at 10000 µM,[1]; [7],1.3%
same,activity at 10000 µM,[2]; [6],6.3%
[Li+] [Li^+],Relative activity,"[3]; 1 mM, not added = 100",96%
same,Relative activity,"[4]; 1 mM, not added = 100",95%
[Cu+2] [Cu^2+],Relative activity,"[3]; 1 mM, not added = 100",91%
same,Relative activity,"[4]; 1 mM, not added = 100",85%
c1cnc2c(c1)ccc1cccnc12 [o-Phenanthroline],activity at 1000 µM,"[3]; 1 mM, not added = 100",103%
same,activity at 1000 µM,"[4]; 1 mM, not added = 100",99%
"CC(C)[C@H](N)C(=O)O [L--Valine, L-valine]",action of the enzyme on the amino acid as substrate (in words),[1]; oxidative deamination,cannot serve as a substrate
same,activity at 10000 µM,[2]; [6],3.1%
"N[C@@H](Cc1ccc(O)cc1)C(=O)O [L--Tyrosine, L-tyrosine]",action of the enzyme on the amino acid as substrate (in words),[1]; oxidative deamination,acting strongly
same,activity at 1400 µM,[1]; [5],72%
same,action of the enzyme on the amino acid as substrate (in words),[2]; oxidative deamination,act very weakly
same,activity at 1400 µM,"[2]; oxidative deamination, substrate concentration 1.4 mM, read-out: Relative activity (%)",5.4%
O=C(O)CN(CCN(CC(=O)O)CC(=O)O)CC(=O)O [EDTA],activity at 1000 µM,[3],119%
same,activity at 1000 µM,[4],120%
N=C(N)NCCC[C@H](N)C(=O)O [L-arginine],action of the enzyme on the amino acid as substrate (in words),[1]; oxidative deamination,cannot serve as a substrate
same,action of the enzyme on the amino acid as substrate (in words),[2]; oxidative deamination,cannot serve as a substrate
CC[C@H](N)C(=O)O [L-α-amino-n-butyric acid],action of the enzyme on the amino acid as substrate (in words),[1]; oxidative deamination,cannot serve as a substrate
NC(=O)CC[C@H](N)C(=O)O [L-glutamine],action of the enzyme on the amino acid as substrate (in words),[1]; oxidative deamination,cannot serve as a substrate
same,action of the enzyme on the amino acid as substrate (in words),[2]; oxidative deamination,cannot serve as a substrate
N[C@@H](CO)C(=O)O [L-serine],action of the enzyme on the amino acid as substrate (in words),[1]; oxidative deamination,cannot serve as a substrate
same,action of the enzyme on the amino acid as substrate (in words),[2]; oxidative deamination,cannot serve as a substrate
[Mg+2] [Mg^2+],Relative activity,"[3]; 1 mM, not added = 100",90%
same,Relative activity,"[4]; 1 mM, not added = 100",99%
[Sn+2] [Sn^2+],Relative activity,"[3]; 0.5 mM, not added = 100",123%
same,Relative activity,"[4]; 0.5 mM, not added = 100",110%
"CCN1C(=O)C=CC1=O [N--Ethylmaleimide, N-ethylmaleimide]",effect on enzyme activity (in words),[3],inhibited
same,activity at 1000 µM,"[3]; 1 mM, not added = 100",21%
same,activity at 1000 µM,"[4]; 1 mM, not added = 100",162%
[Ni+2] [Ni^2+],Relative activity,"[3]; 1 mM, not added = 100",100%
same,Relative activity,"[4]; 1 mM, not added = 100",100%
"c1ccc(-c2ccccn2)nc1 [α,α'-Dipyridyl]",activity at 1000 µM,"[3]; 1 mM, not added = 100",124%
same,activity at 1000 µM,"[4]; 1 mM, not added = 100",104%
[Zn+2] [Zn^2+],Relative activity,"[3]; 1 mM, not added = 100",99%
same,Relative activity,"[4]; 1 mM, not added = 100",96%
[Ag+] [Ag^+],effect on enzyme activity (in words),[3],inhibited
same,Relative activity,"[3]; 1 mM, not added = 100",0%
same,effect on enzyme activity (in words),[4],inhibited
same,Relative activity,"[4]; 1 mM, not added = 100",0%
[Na+] [Na^+],Relative activity,"[3]; 1 mM, not added = 100",92%
same,Relative activity,"[4]; 1 mM, not added = 100",93%
"O=C(O)c1cc(SSc2ccc([N+](=O)[O-])c(C(=O)O)c2)ccc1[N+](=O)[O-] [5,5'-Dithio-bis(2-nitrobenzoic acid)]",effect on enzyme activity (in words),[3],inhibited
same,activity at 1000 µM,"[3]; 1 mM, not added = 100",0%
same,activity at 1000 µM,"[4]; 1 mM, not added = 100",74%
